The nature of data set [1]: Surface tension, hanging drop tensiometer. Format: physicochemical. Particulars: 25 °C; for Surface tension (γ) at CMC: estimated error 1 mNm^−1; for CMC obtained by surface tension (CMCγ): estimated error 10%; for Area per molecule (Am): Gibbs adsorption isotherm using n = 1, estimated error 15%. The protocol:
Surface tension was measured at 25 °C using a homemade hanging drop tensiometer. Samples were hanged from a straight-cut Teflon tube and the size and shape were obtained from pictures as a function of time. Surface tension was obtained from fitting the drop profile to the appropriate Young-Laplace equations. See Sorrenti et al. for more details. From a concentrated clear solution, successive dilutions were made to cover the adequate range of surface tension changes. The surface tension of […]14 was measured in three pH conditions: (a) unbuffered, using water as solvent, (b) buffered at pH = 2, using 10 mM HCl solution to prepare the concentrated sample and their dilutions and (c) buffered at pH = 12, using 10 mM […] to prepare the concentrated solution and their dilutions.

A short description of data set [2]: Pyrene fluorescence (II/IIII ratio) CMC determination. The data set is classed as physicochemical. Particulars: pyrene probe, 25 °C; estimated error 10%. The protocol:
Fluorescence measurements were carried out using a Shimadzu RF 540 spectrofluorometer (Shimadzu, Kyoto, Japan). Pyrene (Sigma-Aldrich, San Luis, MO, USA) was utilized as a fluorescence probe at 25 °C. From a 5 mM solution of catanionic formulations prepared in a pyrene aqueous solution (10^−6 M), different dilutions were prepared. The fluorescence emission spectra of these binary mixtures were acquired from 340 to 450 nm after excitation at 332 nm. The ratio of the first to the third vibronic peaks (II/IIII) in the emission spectra of pyrene is sensitive to the polarity of the microenvironment and the CMC can be calculated from plots of II/IIII as a function of surfactant concentration.

In another data set the test system is 3T3 cell line. In words: NRU cell viability assay. The data set is classed as cell-based, murine. Particulars: 3T3, NRU, 24 h. As for the experimental part:
(§1) The murine Swiss albino fibroblast (3T3), the squamous carcinoma (A431), the immortal human keratinocyte (HaCaT) and the human epithelial carcinoma (HeLa) cell lines were obtained from Celltec UB. Cells were grown in Dulbecco’s Modified Eagle’s Medium (DMEM) (4.5 g/L glucose) supplemented with 10% (v/v) fetal bovine serum (FBS), 1% (v/v) L-glutamine solution (200 mM) and 1% (v/v) penicillin-streptomycin solution (10,000 U/mL penicillin and 10 mg/mL streptomycin) at 37 °C and 5% CO2 (CO2 Incubator Nuaire, Plymouth, MN, USA). All the biological materials were purchased from Lonza (Verviers, Belgium). Cells were cultured in 75 cm^2 culture flasks (TPP, Trasadingen, Switzerland) and were routinely split using trypsin-EDTA (ethylenediaminetetraacetate) solution (170,000 U/L trypsin and 0.2 g/L EDTA) (Lonza, Verviers, Belgium) when cells are approximately 80% confluent. 3T3 and HaCaT cells (1 × 10^5 cells/ mL) and HeLa and A431 cells (5 × 10^4 cells/mL) were grown at the defined densities into the central 60 wells of a 96-well plate. Cells were incubated for 24 h under 5% CO2 at 37 °C. […] Agitation, determination of the absorbance of the extracted solution and effect of each treatment in comparison with control cells were analogous of those described in the case of the MTT method.

Another data set deals with A431 cell line. In words: NRU cell viability assay. Format: cell-based. Particulars: Homo sapiens, A-431, 24 h. The protocol:
as §1

In a further data set the test system is HeLa cell line. In words: NRU cell viability assay. Format: cell-based. Particulars: Homo sapiens, 24 h. The protocol:
as §1

Data set [3] in a line: SAXS, core-shell model fit. The data set is classed as physicochemical. The protocol: SAXS was measured at the Non-Crystalline Diffraction beamline at ALBA Synchrotron NCD-SWEET, Barcelona. A sample-detector distance of 2.433 m was used with 0.10 nm wavelength coupled with a Q315r detector from ADSC. The q scale was calibrated with a silver behenate sample, and data reduction was performed with the software provided by the beamline. The intensity is shown as a function of scattering vector q expressed in nm^−1. q = (4π/λ) sin(θ/2), where θ is the scattering angle and λ is the wavelength of radiation. The spectra have been fitted to lamellar models based on Gaussian description of the bilayer electronic profile for the vesicles, as described in Haba et al.. We have kept the bilayer hydrophobic profile constant along all the samples to avoid overfitting. In these conditions, the estimated error in the position of the headgroups is 2% and 5% for the width of the Gaussian. The pure histidine derivative DMHNHC14 has been fitted to a core-shell model as described in Reference. SAXS of the pure DMHNHC14 compound was measured using an in-house instrument S3-MICRO (Hecus X-ray systems GMBH, Graz, Austria) coupled to a GENIX-Fox three-dimensional (3D) X-ray source (Xenox, Grenoble, France), as described in Reference and performing the same procedures as detailed therein.

In data set [4] the test system is Klebsiella pneumoniae ATCC 13883. In words: Broth microdilution MIC. Format: cell-based. Particulars: 24 h, 37 °C, total surfactant concentration. (In general: In broth dilution the organism is exposed to a series of concentrations in liquid medium.)
The subject of data set [5] is Escherichia coli ATCC 25922. In words: Broth microdilution MIC. The data set is classed as cell-based. Particulars: 24 h, 37 °C, total surfactant concentration.
The subject of the next data set is erythrocytes. The data set is classed as cell-based, rabbit. The protocol:
The erythrocytes, taken from rabbit blood samples, were washed three times in PBS (pH 7.4) and resuspended in PBS at a cell density of 8 × 10^9 cells/mL. The hemolytic activity of the catanionic formulations used in this work was carried out using the procedure described by Pape et al. with minor modifications. A series of different volumes of a concentrated solution (1000 μM for the general case and 5000 μM for the 20:80 and cholesterol-containing formulations) of the catanionic formulation (10–80 μL) were placed in polystyrene tubes containing 25 μL of the prepared erythrocyte suspension and PBS buffer was added to each tube to a total volume of 1 mL. The resulted solutions were incubated at room temperature and shaken for 10 min and the tubes were then centrifuged (5 min at 10,000 rpm). The hemolysis (%) was calculated by comparing the absorbance (540 nm) of the supernatant of the solutions with that of Milli-Q water (control 100% hemolysis) and PBS buffer solution (control, 0% hemolysis).

Turning to `CCCCCCCCCCCCCC(=O)O` [Sodium myristate, sodium myristate], in data set [1], the “Surface tension (γ) at CMC” value is listed as 24 mNm^−1. The “CMC obtained by surface tension (CMCγ)” value in data set [1] is on record as 5.0 ^7 mM. In addition, the “Area per molecule (Am)” value in [1] was 1.0 nm^2. The “CMC obtained by Fluorescence (CMCF)” value in data set [2] is recorded as 0.90 mM. In addition, the half-inhibitory concentration (IC50) (in general, the point on the concentration scale where inhibition reaches its midpoint) in the data set with 3T3 cell line (Mus musculus, NIH3T3) was greater than 50 µM; with A431 cell line it was greater than 50 µM; with HeLa cell line, greater than 50 µM.
For the compound “N(π),N(τ)-bis(methyl)-L-Histidine tetradecyl amide [DMHNHC14]”, in [1], the “Surface tension (γ) at CMC” value is 33 mNm^−1, the “CMC obtained by surface tension (CMCγ)” value is 5.2 mM and the “Area per molecule (Am)” value is 0.57 nm^2. In addition, in data set [2], the “CMC obtained by Fluorescence (CMCF)” value was 3.8 mM. In data set [3] (from SAXS core-shell fit), the Aggregation number is 64 and the “Area per molecule (SAXS)” value came out at 0.66 nm^2. Moreover, the “Hydration degree per polar head” value in data set [3] (from hydrophilic shell volume and electronic density) was “about 17 water molecules”. In data set [3] (micelles of pure surfactant), the “Hydrophilic corona thickness (core-shell model)” value is recorded as 0.88 nm and the “Hydrophobic radius (core-shell model)” value is listed as 1.84 nm. Besides, in data set [4], the MIC (as a rule, the lowest concentration that inhibits growth of the organism) turned out to be 113 µM. In addition, in data set [5], the MIC came out at 113 µM. Besides, in the data set on erythrocytes, the Hemolytic activity entry was “increases with the dose”. The IC50 in the data set with 3T3 cell line was 26.1 µM.

The values are drawn from paper PMC7727793, “Aggregation Behavior, Antibacterial Activity and Biocompatibility of Catanionic Assemblies Based on Amino Acid-Derived Surfactants” (International Journal of Molecular Sciences, 2020).
